Earlier results as cited in patent US20160128912A1, “Personal Care Compositions and Hangers” (The Procter & Gamble Company, priority 2014, published 2016).

O=C(O)c1ccccc1O [Salicylic acid, reference compound]
Log (water Solubility in mol/L): −1.41

Oc1cc(Cl)ccc1Oc1ccc(Cl)cc1Cl [Triclosan, reference compound]
Log (water Solubility in mol/L): −2.46

C=CCCCCCCCCC(=O)O [Undecylenic Acid]
Log (water Solubility in mol/L): −3.15

OCc1ccccc1 [benzyl Alcohol]
Log (water Solubility in mol/L): −0.47

CCCCCCC(O)CO (centres unmarked) [caprylyl glycol]
Log (water Solubility in mol/L): −3.08

CCOC(=O)c1ccc(O)cc1 [ethyl paraben]
Log (water Solubility in mol/L): −1.91

OCCc1ccccc1 [phenethyl alcohol]
Log (water Solubility in mol/L): −0.83

C/C=C/C=C/C(=O)O [sorbic acid]
Log (water Solubility in mol/L): −0.33
